Reference: patent publication US11634447B2 (priority 2012, dated 2023)
pKd: −log10 of the molar value. Values joined by “and” are separate entries in the source; they are usually repeats but may differ in a detail not shown here. Identical values can stand only once. Like-named read-outs stand apart in the source and are kept apart here.

Target: T1, FimH-CRD (Escherichia coli, UniProt P08191)
T1 construct: The first 177 amino acids of the FimH protein are expressed as a fusion protein; thrombin tag (printed as 'fusion protein with thrombin') (cleaved yes); made in house; host or cells: bacteria (pET21b plasmid)
T1 sequence (P08191 22-177): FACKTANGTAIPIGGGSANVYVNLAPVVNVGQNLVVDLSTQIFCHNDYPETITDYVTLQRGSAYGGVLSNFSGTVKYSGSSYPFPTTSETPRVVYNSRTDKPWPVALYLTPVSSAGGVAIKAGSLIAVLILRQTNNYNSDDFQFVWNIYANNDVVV
Assay: Competitive binding assay by fluorescence polarization, assay 1 (compounds prepared by manual dilution)
Design: species or system E. coli
Protocol: The first 177 amino acids of the FimH protein are expressed as a fusion protein with thrombin in a pET21b plasmid in bacteria. This FimH protein sequence contains the carbohydrate recognition domain (CRD) and shall be termed FimH-CRD. Following bacterial expression of the protein, the FimH-CRD protein is purified to homogeneity and the thrombin tag removed by protease cleavage. A competitive binding assay by fluorescence polarization is performed using 5 nM of the Alexa 647 mannoside probe and 60 nM of the FimH-CRD. The samples are assayed in a low volume 384 well microtiter plate in a final volume of 20 μl. The final assay buffer conditions are the following, 50 mM Tris-Cl, ph 7.0, 100 mM NaCl, 1 mM EDTA, 5 mM β-mercaptoethanol, 0.05% BSA and 2.5% DMSO. Two assays are performed for FimH, termed assay 1 or assay 2. The assay conditions are the same for both assays except the following: assay 1 has compounds prepared by manual dilution in a serial dilution factor with 12-point dose response while assay 2 has compounds prepared by a robotics system also through a serial dilution factor (12 point dose response) and initially prepared in duplicate in 384 well-Corning polypropylene round bottom plates. The assay 2 plates have compound which is then frozen and must be thawed prior to use. Initially the Alexa 647 probe and the FimH-CRD are added to the assay buffer and then 0.5 μl of test compound (assay 1 or 2) between 0.4 nM to 75 μM final concentration are added (12 point titration with 3-fold serial dilution). Control wells for the Alexa 647 probe are prepared with the same conditions except for the addition of the FimH-CRD protein. Plates are then incubated for 5 hrs at room temperature in the dark and under humid conditions to prevent drying. Plates are read using the SpectraMax Paradigm multi-mode plate reader and the appropriate fluorescent polarization detection cartridge (Alexa-647).
Alexa 647 mannoside probe is prepared using the similar procedure reported for FAM mannoside (Han, Z. et. al., 2010, J. Med. Chem., 53, 4779) and is described in the scheme below.
To a blue colored stirred solution of (2S,3S,4S,5S,6R)-2-(4-aminobutoxy)-6-(hydroxymethyl)tetrahydropyran-3,4,5-triol (2.21 mg, 0.009 mmol) and the (2E)-2-[(2E,4E)-5-[3,3-dimethyl-5-sulfonato-1-(3-sulfonatopropyl)indol-1-ium-2-yl]penta-2,4-dienylidene]-3-[6-(2,5-dioxopyrrolidin-1-yl)oxy-6-oxo-hexyl]-3-methyl-1-(3-sulfonatopropyl)indoline-5-sulfonate (Potassium Ion (3)) (4.9 mg, 0.0044 mmol) in DMF (44 μL) is added Et3N (5.4 mg, 7.0 μL, 0.053 mmol) at RT. The solution is stirred at room temperature over night, concentrated, dissolved in water and purified on 12 g C-18 silica gel cartridge on Isolera system using acetonitrile in water (0 to 40%, 10 CV) and followed by lyophilization to afford Alexa 647 mannoside probe (3.3 mg, 34%) as deep blue solid.
The Kd values of the compounds are determined from dose response curves using twelve concentrations per compound in duplicate. Curves are fitted to data points using Fluorescence Polarization competitive displacement analysis, and Kds are interpolated from the resulting curves using GraphPad Prism software, version […] (GraphPad software Inc., San Diego, Calif., USA).

[1] = Assay 1 Kd, 5 nM Alexa 647 mannoside probe, 60 nM FimH-CRD, replicate values in one cell

Structure (SMILES)	pKd [1]	pKd (read-out: Assay 1 Kd, 5 nM Alexa 647 mannoside probe, 60 nM FimH-CRD, replicate values in one cell)	Kd [1]
O=C(Nc1ccc(NC(=O)c2cccc([C@H]3O[C@H](CO)[C@@H](O)[C@H](O)[C@@H]3O)c2)cc1)c1cccc([C@H]2O[C@H](CO)[C@@H](O)[C@H](O)[C@@H]2O)c1 [Compound 7, (3-[(2R,3S,4R,5S,6R)-3,4,5-Trihydroxy-6-(hydroxymethyl)tetrahydropyran-2-yl]-N-[4-[[3-[(2R,3S,4R,5S,6R)-3,4,5-trihydroxy-6-(hydroxymethyl)tetrahydropyran-2-yl]benzoyl]amino]phenyl]benzamide)]	7.77 and 7.96		
O=C(NCCCCCCCNC(=O)c1cccc([C@H]2O[C@H](CO)[C@@H](O)[C@H](O)[C@@H]2O)c1)c1cccc([C@H]2O[C@H](CO)[C@@H](O)[C@H](O)[C@@H]2O)c1 [Compound 13, (R,R,S,R,S)-N,N′-(Heptane-1,7-diyl)bis(3-((2R,3S,4R,5S,6R)-3,4,5-trihydroxy-6-(hydroxymethyl)tetrahydro-2H-pyran-2-yl)benzamide)]	7.77 and 7.92		
Cc1cc(/C=C/C[C@H]2O[C@H](CO)[C@@H](O)[C@H](O)[C@@H]2O)cc(C)c1/C=C/C[C@H]1O[C@H](CO)[C@@H](O)[C@H](O)[C@@H]1O [Compound 31, ((2R,3S,4R,5S,6R)-2-[(E)-3-[3,5-Dimethyl-4-[(E)-3-((2R,3S,4R,5S,6R)-3,4,5-trihydroxy-6-(hydroxymethyl)tetrahydropyran-2-yl]prop-1-enyl]phenyl]allyl]-6-(hydroxymethyl)tetrahydropyran-3,4,5-triol)]	> 8.30	> 8.30	
C#CCN(Cc1cn([C@H]2O[C@H](CO)[C@@H](O)[C@H](O)[C@@H]2O)nn1)Cc1cn([C@H]2O[C@H](CO)[C@@H](O)[C@H](O)[C@@H]2O)nn1 [Compound 20]	7.24 and 7.02		
OC[C@H]1O[C@H](c2ccc(-n3cc([C@H]4O[C@H](CO)[C@@H](O)[C@H](O)[C@@H]4O)nn3)cc2)[C@@H](O)[C@@H](O)[C@@H]1O [Compound 36, ((2R,3S,4R,5S,6R)-2-(Hydroxymethyl)-6-[4-[4-[(2R,3S,4R,5S,6R)-3,4,5-trihydroxy-6-(hydroxymethyl)tetrahydropyran-2-yl]triazol-1-yl]phenyl]tetrahydropyran-3,4,5-triol)]	8.22 and 7.85 and > 8.30		
O=C(NCCOCCOCCNC(=O)c1cccc([C@H]2O[C@H](CO)[C@@H](O)[C@H](O)[C@@H]2O)c1)c1cccc([C@H]2O[C@H](CO)[C@@H](O)[C@H](O)[C@@H]2O)c1 [Compound 15, (R,R,S,R,S)-N,N′-((Ethane-1,2-diylbis(oxy))bis(ethane-2,1-diyl))bis(3-((2R,3S,4R,5S,6R)-3,4,5-trihydroxy-6-(hydroxymethyl)tetrahydro-2H-pyran-2-yl)benzamide)]	7.96 and 7.82		
O=C(Nc1ccc([C@H]2O[C@H](CO)[C@@H](O)[C@H](O)[C@@H]2O)cc1)c1cccc([C@H]2O[C@H](CO)[C@@H](O)[C@H](O)[C@@H]2O)c1 [Compound 39, (3-[(2R,3S,4R,5S,6R)-3,4,5-Trihydroxy-6-(hydroxymethyl)tetrahydropyran-2-yl]-N-[4-[(2R,3S,4R,5S,6R)-3,4,5-trihydroxy-6-(hydroxymethyl)tetrahydropyran-2-yl]phenyl]benzamide)]	7.54 and 7.34		
O=C(NCCNC(=O)c1cccc([C@H]2O[C@H](CO)[C@@H](O)[C@H](O)[C@@H]2O)c1)c1cccc([C@H]2O[C@H](CO)[C@@H](O)[C@H](O)[C@@H]2O)c1 [Compound 8, (R,R,S,R,S)-N,N′-(Ethane-1,2-diyl)bis(3-((2R,3S,4R,5S,6R)-3,4,5-trihydroxy-6-(hydroxymethyl)tetrahydro-2H-pyran-2-yl)benzamide)]	7.80 and 7.72		
O=C(NCCCCNC(=O)c1cccc([C@H]2O[C@H](CO)[C@@H](O)[C@H](O)[C@@H]2O)c1)c1cccc([C@H]2O[C@H](CO)[C@@H](O)[C@H](O)[C@@H]2O)c1 [Compound 10, (R,R,S,R,S)-N,N′-(Butane-1,4-diyl)bis(3-((2R,3S,4R,5S,6R)-3,4,5-trihydroxy-6-(hydroxymethyl)tetrahydro-2H-pyran-2-yl)benzamide)]	8.05 and 7.82		
O=C(C[C@H]1O[C@H](CO)[C@@H](O)[C@H](O)[C@@H]1O)Nc1ccc(NC(=O)C[C@H]2O[C@H](CO)[C@@H](O)[C@H](O)[C@@H]2O)cc1 [Compound 43, (2-[(2R,3S,4R,5S,6R)-3,4,5-Trihydroxy-6-(hydroxymethyl)tetrahydropyran-2-yl]-N-[4-[[2-[(2R,3S,4R,5,6R)-3,4,5-trihydroxy-6-(hydroxymethyl)tetrahydropyran-2-yl]acetyl]amino]phenyl]acetamide)]	7.70 and 7.57		
CC(C)Oc1ccc([C@H]2O[C@H](CO)[C@@H](O)[C@H](O)[C@@H]2O)cc1[C@H]1O[C@H](CO)[C@@H](O)[C@H](O)[C@@H]1O [Compound 4]	7.17 and 7.02		
OC[C@H]1O[C@H](Oc2cccc([C@H]3O[C@H](CO)[C@@H](O)[C@H](O)[C@@H]3O)c2)[C@@H](O)[C@@H](O)[C@@H]1O [Compound 17, ((2R,3S,4R,5S,6R)-2-(Hydroxymethyl)-6-[3-[(2R,3S,4S,5S,6R)-3,4,5-trihydroxy-6-(hydroxymethyl)tetrahydropyran-2-yl]oxyphenyl]tetrahydropyran-3,4,5-triol)]	> 8.30 and 8.22		
O=C(NCCCCCCNC(=O)c1cccc([C@H]2O[C@H](CO)[C@@H](O)[C@H](O)[C@@H]2O)c1)c1cccc([C@H]2O[C@H](CO)[C@@H](O)[C@H](O)[C@@H]2O)c1 [Compound 12, (R,R,S,R,S)-N,N′-(Hexane-1,6-diyl)bis(3-((2R,3S,4R,5S,6R)-3,4,5-trihydroxy-6-(hydroxymethyl)tetrahydro-2H-pyran-2-yl)benzamide)]	7.85 and 7.74		
OC[C@H]1O[C@H](n2cc(-c3ccc(-c4cn([C@H]5O[C@H](CO)[C@@H](O)[C@H](O)[C@@H]5O)nn4)cc3)nn2)[C@@H](O)[C@@H](O)[C@@H]1O [Compound 18, ((2R,3S,4S,5S,6S)-2-(Hydroxymethyl)-6-[4-[4-[1-[(2S,3S,4S,5S,6R)-3,4,5-trihydroxy-6-(hydroxymethyl)tetrahydropyran-2-yl]triazol-4-yl]phenyl]triazol-1-yl]tetrahydropyran-3,4,5-triol)]	5.97 and 5.99		
OC[C@H]1O[C@H](c2ccc(-c3cn([C@H]4O[C@H](CO)[C@@H](O)[C@H](O)[C@@H]4O)nn3)cc2)[C@@H](O)[C@@H](O)[C@@H]1O [Compound 21, ((2R,3S,4R,5S,6R)-2-(Hydroxymethyl)-6-(4-(1-((2S,3S,4S,5S,6R)-3,4,5-trihydroxy-6-(hydroxymethyl)tetrahydro-2H-pyran-2-yl)-1H-1,2,3-triazol-4-yl)phenyl)tetrahydro-2H-pyran-3,4,5-triol)]			< 5 nM (2×) and 9 nM
OC[C@H]1O[C@H](c2cc([C@H]3O[C@H](CO)[C@@H](O)[C@H](O)[C@@H]3O)cc(C(F)(F)F)c2)[C@@H](O)[C@@H](O)[C@@H]1O [Compound 3]	7.29 and 7.40		
OC[C@H]1O[C@H](C/C=C/c2ccc(C#Cc3ccc([C@H]4O[C@H](CO)[C@@H](O)[C@H](O)[C@@H]4O)cc3)cc2)[C@@H](O)[C@@H](O)[C@@H]1O [Compound 34, ((2R,3 S,4R,5S,6R)-2-(Hydroxymethyl)-6-[(E)-3-[4-[2-[4-[(2R,3S,4R,5S,6R)-3,4,5-trihydroxy-6-(hydroxymethyl)tetrahydropyran-2-yl]phenyl]ethynyl]phenyl]allyl]tetrahydropyran-3,4,5-triol)]	> 8.30 and 8.22		
